According to patent US20060121565A1, “Methods for increasing the production of a recombinant polypeptide from a host cell” (CYMIP A/S, priority 2002, published 2006):

T1: protease performing the cleavage of synthetic human CCK-33 to CCK-22 (metalloprotease, identified as Cym1p) (Saccharomyces cerevisiae, UniProt P32898)
T1 construct: endogenous in cells; host or cells: S. cerevisiae strain LJY123 (APE1, APE2, APE3 deleted; derived from Y14953), clarified crude cell extract
T1 sequence (P32898 17-989): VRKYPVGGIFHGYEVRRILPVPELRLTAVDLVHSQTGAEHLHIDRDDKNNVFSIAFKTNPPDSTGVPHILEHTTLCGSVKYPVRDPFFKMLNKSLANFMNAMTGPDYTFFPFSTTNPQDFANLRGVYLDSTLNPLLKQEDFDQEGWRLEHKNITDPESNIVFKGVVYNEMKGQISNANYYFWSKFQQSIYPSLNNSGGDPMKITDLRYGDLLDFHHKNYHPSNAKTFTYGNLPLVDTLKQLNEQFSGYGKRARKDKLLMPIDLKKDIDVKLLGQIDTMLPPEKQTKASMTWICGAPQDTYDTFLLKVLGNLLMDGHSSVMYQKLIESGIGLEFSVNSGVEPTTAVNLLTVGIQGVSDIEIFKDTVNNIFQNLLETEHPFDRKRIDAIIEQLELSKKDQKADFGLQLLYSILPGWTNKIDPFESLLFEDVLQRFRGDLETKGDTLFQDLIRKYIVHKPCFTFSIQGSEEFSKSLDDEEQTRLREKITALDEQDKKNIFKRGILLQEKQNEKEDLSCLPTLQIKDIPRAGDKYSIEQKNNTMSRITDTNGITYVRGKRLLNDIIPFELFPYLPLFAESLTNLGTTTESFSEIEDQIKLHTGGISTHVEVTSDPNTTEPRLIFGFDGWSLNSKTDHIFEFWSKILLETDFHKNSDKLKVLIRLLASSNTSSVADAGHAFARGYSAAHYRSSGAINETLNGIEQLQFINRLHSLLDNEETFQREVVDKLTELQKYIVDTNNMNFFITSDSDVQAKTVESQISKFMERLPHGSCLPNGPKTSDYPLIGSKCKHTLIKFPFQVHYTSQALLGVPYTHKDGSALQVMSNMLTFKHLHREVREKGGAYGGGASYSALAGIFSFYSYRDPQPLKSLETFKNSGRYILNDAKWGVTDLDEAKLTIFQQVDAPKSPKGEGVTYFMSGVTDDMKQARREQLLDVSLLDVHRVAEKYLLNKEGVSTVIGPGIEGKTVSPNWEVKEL

T2: Ac-CCK-33-Gly, P06307
T2 chain: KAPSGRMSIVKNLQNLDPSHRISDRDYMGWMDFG


Legend:
[1] = biological target: T1, protease performing the cleavage of synthetic human CCK-33 to CCK-22 (metalloprotease, identified as Cym1p); test: In vitro protease assay: cleavage of synthetic CCK-33 to CCK-22 by crude yeast cell extract (LJY123); format: biochemical; conditions: extract from LJY123; 1 mM EDTA, 1 mM 1,10-orthophenanthroline; 30° C., 1 h
Experimental: FIG. 4. In vitro protease assay including inhibitors and activators. The fraction of CCK-22 was calculated from the immuno-reactivity using Ab 89009 divided by the total amount of mature and N-terminal extended CCK-22 measured with Ab 89009 after trypsin treatment. A, Effect of different inhibitors. B, Protease reactivation by addition of 1.2 mM divalent metal ions to extracts where the activity had been inhibited with 1 mM EDTA. The data represent mean±SD of three independent experiments.
FIG. 5. Protease reactivation by Zn^2+ and Mn^2+. […] The activity was measured as the fraction of matured CCK-22 after 30, 60 and 120 min incubation. The fraction of CCK-22 was calculated from the immuno-reactivity using Ab 89009 divided by the total amount of mature and N-terminal extended CCK-22 measured with Ab 89009 after trypsin treatment. […]
Two different antisera were used to determine the amount of processed cholecystokinin. […] The fraction of CCK processed to CCK-22 is calculated by division of the immuno-reactivity measured with Ab 89009 with the amount measured with the same antibody after the sample was treated with trypsin to measure the total amount of N-terminal extended CCK-22. […]
The nature of the protease performing the cleavage of synthetic human CCK-33 to CCK-22 was analysed by inclusion of a number of different inhibitors with the extract from LJY123. […]

Ac-CCK-33-Gly, P06307 = biological target: T2, Ac-CCK-33-Gly, P06307

| inhibition of proteolysis of CCK-33 to CCK-22 [1] | Molecule | rate of CCK-22 production in the in vitro protease assay (Ac-CCK-33-Gly, P06307) |
| --- | --- | --- |
| inhibited | c1cnc2c(c1)ccc1cccnc12 [1,10 ortho-phenanthroline] | – |
| inhibited | O=C(O)CN(CCN(CC(=O)O)CC(=O)O)CC(=O)O [EDTA] | – |
| – | Saccharomyces cerevisiae Cym1p (protein) VRKYPVGGIFHGYEVRRILPVPELRLTAVDLVHSQTGAEHLHIDRDDKNNVFSIAFKTNPPDSTGVPHILEHTTLCGSVKYPVRDPFFKMLNKSLANFMNAMTGPDYTFFPFSTTNPQDFANLRGVYLDSTLNPLLKQEDFDQEGWRLEHKNITDPESNIVFKGVVYNEMKGQISNANYYFWSKFQQSIYPSLNNSGGDPMKITDLRYGDLLDFHHKNYHPSNAKTFTYGNLPLVDTLKQLNEQFSGYGKRARKDKLLMPIDLKKDIDVKLLGQIDTMLPPEKQTKASMTWICGAPQDTYDTFLLKVLGNLLMDGHSSVMYQKLIESGIGLEFSVNSGVEPTTAVNLLTVGIQGVSDIEIFKDTVNNIFQNLLETEHPFDRKRIDAIIEQLELSKKDQKADFGLQLLYSILPGWTNKIDPFESLLFEDVLQRFRGDLETKGDTLFQDLIRKYIVHKPCFTFSIQGSEEFSKSLDDEEQTRLREKITALDEQDKKNIFKRGILLQEKQNEKEDLSCLPTLQIKDIPRAGDKYSIEQKNNTMSRITDTNGITYVRGKRLLNDIIPFELFPYLPLFAESLTNLGTTTESFSEIEDQIKLHTGGISTHVEVTSDPNTTEPRLIFGFDGWSLNSKTDHIFEFWSKILLETDFHKNSDKLKVLIRLLASSNTSSVADAGHAFARGYSAAHYRSSGAINETLNGIEQLQFINRLHSLLDNEETFQREVVDKLTELQKYIVDTNNMNFFITSDSDVQAKTVESQISKFMERLPHGSCLPNGPKTSDYPLIGSKCKHTLIKFPFQVHYTSQALLGVPYTHKDGSALQVMSNMLTFKHLHREVREKGGAYGGGASYSALAGIFSFYSYRDPQPLKSLETFKNSGRYILNDAKWGVTDLDEAKLTIFQQVDAPKSPKGEGVTYFMSGVTDDMKQARREQLLDVSLLDVHRVAEKYLLNKEGVSTVIGPGIEGKTVSPNWEVKEL | Expression of CYM1 on a multicopy plasmid enhanced the rate of CCK-22 production several fold |
